Holding throughout (assay type): physicochemical
The nature of series [1]: Heating experiments (105° C., XRPD). To be noted: about 1 hour.
The nature of series [2]: Competition experiments of crystal form I and crystal form IV in solvents at room temperature. To be noted: 7 days, each tested solvent.
The nature of series [3]: Dynamic Vapor Sorption (DVS). As for the experimental part:
An Advantage 1.0 dynamic moisture adsorption instrument from SMS was used to detect, the temperature is 25° C., the relative humidity range is 0%-95%, humidity change step is relative humidity 5%, when the value of the mass change rate dm/dt is less than 0.002%, it is considered equilibrium of the balance, when the mass change rate is less than 0.01%/minute within 5 minutes, it is considered as standards of equilibrium in detection process, the maximum equilibrium time is 2 hours.

Series [4] in a line: Stability of crystal form I in solvent at room temperature (suspension equilibrium, XRPD).
Series [5] is described as follows: Stability of crystal form I in solvent at high temperature (50° C., XRPD).
A short description of series [6]: Influencing factor stability test, high temperature (60±2° C.).
Series [7] can be described thus: Influencing factor stability test, high humidity (25° C., RH92.5±5%).
Series [8] can be described thus: Influencing factor stability test, light (4500±500 Lux, 25° C.).
A short description of series [9]: Accelerated stability (40±2° C., RH 75±5%).
Series [10] in a line: Hygroscopicity under condition of high humidity.

“And” between values parts separate entries of the source, which are not always exact repeats. Equal values may be shown once.

As for `CC(C)(Cc1cc2c(-c3ccc(C#N)cc3)cncc2s1)C(=O)O` [crystal form IV, 3-[4-(4-Cyanophenyl)thieno[2,3-c]pyridin-2-yl]-2,2-dimethylpropanoic acid], the “XRPD after heating compared to before heating” value in series [1] is on record as “unchanged”. Besides, the “solid form after competition between crystal form I and crystal form IV (XRPD)” value in series [2] is “transformed to the crystal form I”.

On to `CC(C)(Cc1cc2c(-c3ccc(C#N)cc3)cncc2s1)C(=O)O` [crystal form I, 3-[4-(4-Cyanophenyl)thieno[2,3-c]pyridin-2-yl]-2,2-dimethylpropanoic acid], for which, in series [3], the “hygroscopicity (in words)” value was “non-hygroscopic”. Moreover, in series [3] (relative humidity from 0 to 95%, 25° C.), the “mass increase compared with the initial mass (DVS)” value was 0.00944% and 0.01%. The “XRPD after heating compared to before heating” value in series [1] is “unchanged”. In addition, the “crystal form after suspension equilibrium (XRPD)” value was “unchanged” in [4] (7 days, single organic solvents (methanol, ethanol, isopropanol, acetone, ethyl acetate etc.)); “unchanged” in series [4] (14 days, water and methanol-, ethanol-, isopropanol-, acetone-water mixtures). For the same compound, the “crystal form after suspension equilibration (XRPD)” value in [5] (30 days, methanol-water, ethanol-water, isopropanol-water, acetone-water 50:50) is reported as “unchanged”; in [5] (43 days, methanol, ethanol, isopropanol, acetone or ethyl acetate), “unchanged”. The Assay in series [6] (0 day) is 99.1%; in series [6] (5 days) it was 101.1%; in series [6] (10 days) it was 100.0%; in series [7] (0 day), 99.1%; in [7] (5 days), 100.1%; in series [7] (10 days), 100.6%. Also, the Assay in series [8] (0 day) is 99.1%; in series [8] (5 days) it was 99.8%; in series [8] (10 days) it was 100.3%; in series [9] (0 day), 99.1%; in [9] (1 month) it was 99.2%; in [9] (2 months), 98.6%. In addition, the Assay in series [9] (3 months) turned out to be 98.5%; in series [9] (6 months) it was 99.7%. Further, the Polymorph entry in [6] (0 day), in [6] (5 days), in [6] (10 days), in [7] (0 day), in series [7] (5 days) and in [7] (10 days) was “Crystal form I” throughout. For the same compound, the Polymorph result in [8] (0 day), in series [8] (5 days) and in [8] (10 days) was “Crystal form I” each time. The Total impurities is 0.05% in series [6] (0 day); 0.07% in [6] (5 days); 0.07% in [6] (10 days); 0.05% in series [7] (0 day); 0.07% in series [7] (5 days); 0.07% in series [7] (10 days). Besides, the Total impurities in series [8] (0 day) is listed as 0.05%; in series [8] (5 days), 0.07%; in series [8] (10 days) it was 0.12%; in series [9] (0 day), 0.05%; in series [9] (1 month), 0.05%; in [9] (2 months), 0.03%. Further, the Total impurities was 0.03% in series [9] (3 months) and 0.05% in series [9] (6 months). In addition, the Water content in [6] (0 day) came to 0.05%; in [6] (5 days), 0.04%; in series [6] (10 days), 0.04%; in series [7] (0 day), 0.05%; in [7] (5 days) it was 0.06%; in series [7] (10 days), 0.09%. Further, the Water content in [8] (0 day) amounted to 0.05%; in series [8] (5 days), 0.04%; in series [8] (10 days), 0.09%; in series [9] (0 day) it was 0.04%; in series [9] (1 month) it was 0.06%; in [9] (2 months), 0.03%. Further, the Water content in [9] (3 months) came to 0.04%; in series [9] (6 months), 0.10%.

In the case of `CC(C)(Cc1cc2c(-c3ccc(C#N)cc3)cncc2s1)C(=O)O` [crystal form III, 3-[4-(4-Cyanophenyl)thieno[2,3-c]pyridin-2-yl]-2,2-dimethylpropanoic acid], the “XRPD after heating compared to before heating” value in series [1] is on record as “transform to the crystal form I”.

As to `CC(C)(Cc1cc2c(-c3ccc(C#N)cc3)cncc2s1)C(=O)O` [crystal form VI, 3-[4-(4-Cyanophenyl)thieno[2,3-c]pyridin-2-yl]-2,2-dimethylpropanoic acid], the “XRPD after heating compared to before heating” value in [1] was “transform to the crystal form I”.

As for `CC(C)(Cc1cc2c(-c3ccc(C#N)cc3)cncc2s1)C(=O)O` [amorphous form, 3-[4-(4-Cyanophenyl)thieno[2,3-c]pyridin-2-yl]-2,2-dimethylpropanoic acid], the “hygroscopicity (in words)” value in series [10] was “strong hygroscopicity”.

The values are drawn from patent publication US20250059202A1, “CRYSTAL FORM OF FUSED RING DERIVATIVE, AND PREPARATION METHOD THEREFOR AND USE THEREOF” (SHANGHAI YINGLI PHARMACEUTICAL CO., LTD, priority 2022, published 2025).
